Experiment: molar heat capacity at constant pressure; xn = mol fraction of the nth substance listed
Conditions: 101 kPa, Liquid, Large sample (1 g) DSC

CN1CCCC1=O [N-methylpyrrolidone] + O
molar heat capacity at constant pressure [J/K/mol]
Conditions	x1 = 0.0999	x1 = 0.1998	x1 = 0.2984	x1 = 0.3979	x1 = 0.4961	x1 = 0.5981	x1 = 0.6917	x1 = 0.799	x1 = 0.8946	x1 = 1
303.15 K	90	102	113	122	129	137	144	152	158	166
308.15 K	90	103	114	123	131	138	146	153	160	167
313.15 K	91	104	115	124	132	140	147	154	161	168
318.15 K	91	105	116	125	133	141	148	155	162	169
323.15 K	92	105	118	127	135	142	150	157	164	170
328.15 K	92	106	119	128	136	144	151	158	165	172
333.15 K	93	107	120	129	138	145	153	160	166	174
338.15 K	93	108	121	131	139	147	154	161	168	175
343.15 K	94	109	122	132	141	149	156	163	169	176
348.15 K	95	110	123	133	142	150	157	164	170	177
353.15 K	95	110	124	134	142	151	158	165	170	178

COCCOCCOCCOC [2,5,8,11-tetraoxadodecane] + O
molar heat capacity at constant pressure [J/K/mol]
Conditions	x1 = 0.0999	x1 = 0.1997	x1 = 0.2967	x1 = 0.3977	x1 = 0.4983	x1 = 0.5918	x1 = 0.6926	x1 = 0.7941	x1 = 0.8686	x1 = 1
303.15 K	109	141	171	198	224	250	275	300	328	359
308.15 K	110	143	173	200	227	253	278	304	332	364
313.15 K	111	144	174	202	228	254	279	306	334	366
318.15 K	112	145	175	203	229	255	281	307	335	368
323.15 K	112	146	176	204	231	256	282	309	337	370
328.15 K	113	147	177	206	232	258	283	310	339	371
333.15 K	114	148	179	207	233	259	285	312	341	373
338.15 K	114	149	180	208	235	261	286	313	342	375
343.15 K	115	150	181	210	237	263	289	316	345	379
348.15 K	116	151	183	211	238	264	290	318	347	381
353.15 K	116	152	184	212	239	265	291	318	348	382

O=CN1CCOCC1 [N-formylmorpholine] + O
molar heat capacity at constant pressure [J/K/mol]
Conditions	x1 = 0.0997	x1 = 0.1998	x1 = 0.2992	x1 = 0.3993	x1 = 0.4975	x1 = 0.5978	x1 = 0.6954	x1 = 0.7988	x1 = 0.8946	x1 = 1
303.15 K	86	98	111	123	134	145	154	164	174	185
308.15 K	86	99	111	124	135	146	156	166	176	186
313.15 K	87	100	113	125	137	148	158	168	178	188
318.15 K	87	100	114	126	138	149	159	169	179	189
323.15 K	88	101	115	127	140	150	161	171	181	191
328.15 K	88	102	116	129	141	152	162	173	183	193
333.15 K	89	103	117	130	142	153	164	174	184	195
338.15 K	90	104	118	131	144	155	166	176	186	197
343.15 K	91	106	120	133	146	157	168	178	189	200
348.15 K	91	107	121	135	147	158	169	180	190	201
353.15 K	92	107	122	135	148	159	170	181	191	202

— the NIST ThermoML archive (doi:10.1021/je800999s)
